Laboratory results taken from patent US6753337B2, “Alkynyl containing hydroxamic acid compounds as matrix metalloproteinase/tace inhibitors” (Wyeth Holdings Corporation, priority 1999, dated 2004).

Assays:
[1] = target: TNF-α converting enzyme (TACE) (Homo sapiens, UniProt P78536); test: Test procedure for measuring TACE inhibition (fluorescent peptidyl substrate); format: biochemical
Experimental: Using 96-well black microtiter plates, each well receives a solution composed of 10 μL TACE (final concentration 1 μg/mL), 70 μL Tris buffer, pH 7.4 containing 10% glycerol (final concentration 10 mM), and 10 μL of test compound solution in DMSO (final concentration 1 μM, DMSO concentration <1%) and incubated for 10 minutes at room temperature. The reaction is initiated by addition of a fluorescent peptidyl substrate (final concentration 100 μM to each well and then shaking on a shaker for 5 sec.
The reaction is read (excitation 340 nm, emission 420 nm) for 10 min. and the increase in fluorescence over time is plotted as a linear line. The slope of the line is calculated and represents the reaction rate.
(§1) The mean (x±sem) of the control rate is calculated and compared for statistical significance (p<0.05) with drug-treated rates using Dunnett's multiple comparison test.

MMP-13 = MMP-13 (Homo sapiens, UniProt P45452); test: MMP-13 inhibition (thiopeptide or fluorescent peptide substrate); format: biochemical; conditions: read-out: MMP13 IC50
Experimental: The enzyme activity is measured by the rate of the color increase. The thiopeptide substrate is made up fresh as a 20 mM stock in 100% DMSO and the DTNB is dissolved in 100% DMSO as a 100 mM stock and stored in the dark at room temperature. Both the substrate and DTNB are diluted together to 1 mM with substrate buffer (50 mM HEPES pH 7.5, 5 mM CaCl2) before use. The stock of enzyme is diluted with buffer (50 mM HEPES, pH 7.5, 5 mM CaCl2, 0.02% Brij) to the desired final concentration.
Alternatively, a fluorescent peptide substrate is used. In this test procedure, the peptide substrate contains a fluorescent group and a quenching group. Upon cleavage of the substrate by an MMP, the fluorescence that is generated is quantitated on the fluorescence plate reader. The assay is run in HCBC assay buffer (50 mM HEPES, pH 7.0, 5 mM Ca^+2, 0.02% Brij, 0.5% Cysteine), with human recombinant MMP-1, MMP-9, or MMP-13. The substrate is dissolved in methanol and stored frozen in 1 mM aliquots. For the assay, substrate and enzymes are diluted in HCBC buffer to the desired concentrations. Compounds are added to the 96 well plate containing enzyme and the reaction is started by the addition of substrate.
as §1, with “For either the thiopeptide or fluorescent peptide test procedures, the slope of the line is calculated and represents the reaction rate. […] The” for “The”

Chain of TNF-α converting enzyme (TACE) (P78536 215-824): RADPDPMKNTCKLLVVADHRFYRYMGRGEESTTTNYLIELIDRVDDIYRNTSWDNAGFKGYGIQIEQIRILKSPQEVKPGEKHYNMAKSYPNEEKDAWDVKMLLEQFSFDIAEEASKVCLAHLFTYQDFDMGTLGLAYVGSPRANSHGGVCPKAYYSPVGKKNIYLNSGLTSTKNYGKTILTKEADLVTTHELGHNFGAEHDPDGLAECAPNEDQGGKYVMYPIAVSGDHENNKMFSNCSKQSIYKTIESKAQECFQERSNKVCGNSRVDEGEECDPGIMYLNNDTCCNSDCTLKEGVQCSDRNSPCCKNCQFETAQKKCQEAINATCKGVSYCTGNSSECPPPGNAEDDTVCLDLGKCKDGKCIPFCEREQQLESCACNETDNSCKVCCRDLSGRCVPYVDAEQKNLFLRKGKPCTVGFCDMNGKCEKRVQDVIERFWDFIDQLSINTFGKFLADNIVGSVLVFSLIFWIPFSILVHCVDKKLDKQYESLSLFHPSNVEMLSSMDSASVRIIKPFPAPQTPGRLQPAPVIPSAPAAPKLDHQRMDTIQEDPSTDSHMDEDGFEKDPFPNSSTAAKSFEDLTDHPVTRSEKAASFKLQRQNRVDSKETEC

Structure (SMILES)	IC50 [1]	IC50 (MMP-13)	inhibition at 1 µM [1]
CC#CCOc1ccc(S(=O)(=O)C2(C(=O)NO)CCN(Cc3ccc(Br)cc3)CC2)cc1 [Example 1, 1-(4-Bromo-benzyl)-4-(4-but-2-ynyxoy-benzenesulfonyl)-piperdine-4-carboxylic acid hydroxyamide]	65 nM	155 nM	
CC#CCOc1ccc(S(=O)(=O)C2(C(=O)NO)CCN(Cc3ccc(OC)cc3)CC2)cc1 [Example 2, 4-(4-But-2-ynyloxy-benzenesulfonyl)-1-(4-methoxy-benzyl)-piperdine-4-carboxylic acid hydroxyamide]	82 nM	39.6 nM	
CC#CCOc1ccc(S(=O)(=O)C2(C(=O)NO)CCN(Cc3ccccc3)CC2)cc1 [Example 4, 1-Benzyl-4-(4-but-2-ynyloxy-benzenesulfonyl)-piperdine-4-carboxylic acid hydroxyamide]	90 nM	47.3 nM	
O=C(NO)C1(S(=O)(=O)c2ccc(OCC#CCN3CCCCC3)cc2)CCN(Cc2ccc(Br)cc2)CC1 [Example 12, 1-(4-bromo-benzyl)-4-[4-(4-piperidin-1-yl-but-2-ynyloxy)-benzenesulfonyl]-piperidine-4-carboxylic acid hydroxyamide]		1500 nM	41.8%
CC#CCOc1cccc(S(=O)(=O)C2(C(=O)NO)CCN(Cc3ccccc3)CC2)c1 [Example 21, 1-benzyl-4-{[3-(2-butynyloxy)phenyl]sulfonyl}-N-hydroxy-4-piperdine carboxamide]	509 nM	858 nM	
CC#CCOc1ccc(S(=O)(=O)C2(C(=O)NO)CCN(C(C)C)CC2)cc1 [Example 22, 4-{[4-(2-butynyloxy)phenyl]sulfonyl}-N-hydroxy-1-isopropyl-4-piperidine carboxamide]		1080 nM	48.4%
CC#CCOc1ccc(S(=O)(=O)C2(C(=O)NO)CCCN(CC)C2)cc1 (stereo not shown) [Example 24, 3-{[4-(2-Butynyloxy)phenyl]sulfonyl}-1-ethyl-N-hydroxy-3-piperidinecarboxamide]	180 nM	463 nM	
CC#CCOc1ccc(S(=O)(=O)C2(C(=O)NO)CCCN(Cc3ccc(Cl)cc3)C2)cc1 (stereo not shown) [Example 25, 3-{[4-(2-butynyloxy)phenyl]sulfonyl}-1-(4-chlorobenzyl)-N-hydroxy-3-piperidinecarboxamide]	695 nM	1180 nM	
CC#CCOc1ccc(S(=O)(=O)C2(C(=O)NO)CCN(C(CC)CC)CC2)cc1 [Example 27, 4-{[4-(2-Butynyloxy)phenyl]sulfonyl}-1-(3-pentanyl)-piperidine-4-carboxylic acid hydroxyamide]	168 nM	426 nM	
CC#CCOc1ccc(SCC2(C(=O)NO)CCN(C(=O)OC(C)(C)C)CC2)cc1 [Example 30, tert-butyl-4-({[4-(2-butynyloxy)phenyl]sulfanyl}methyl)-4-[(hydroxyamino)-carbonyl]-1-piperidinecarboxylate]	102 nM	2910 nM	
CC#CCOc1ccc(SCC2(C(=O)NO)CCNCC2)cc1 [Example 31, 4-({[4-(But-2-ynyloxy)phenyl]thio}methyl)-N-hydroxypiperidine-4-carboxamide]	314 nM	> 10000 nM	
CC#CCOc1ccc([S+]([O-])CC2(C(=O)NO)CCN(C(=O)OC(C)(C)C)CC2)cc1 (stereo not shown) [Example 32, tert-Butyl-4-({[4-(2-butynyloxy)phenyl]sulfinyl}methyl)-4-[(hydroxyamino)-carbonyl]-1-piperidinecarboxylate]	100 nM	2750 nM	
CC#CCOc1ccc([S+]([O-])CC2(C(=O)NO)CCNCC2)cc1 (stereo not shown) [Example 33, 4-[[[4-(2-Butynyloxy)phenyl]sulfinyl]methyl]-N-hydroxy-4-piperidinecarboxamide]	327 nM	~10000 nM	

Other lines, results leading:

IC50 [1]	IC50 (MMP-13)	inhibition at 1 µM [1]	Structure (SMILES)
55 nM	90 nM		CC#CCOc1ccc(S(=O)(=O)C2(C(=O)NO)CCN(Cc3ccc(Cl)cc3)CC2)cc1 [Example 3, 4-(4-But-2-ynyloxy-benzenesulfonyl)-1-(4-chloro-benzyl)-piperdine-4-carboxylic acid hydroxyamide]
188 nM	180 nM		CCC#CCOc1ccc(S(=O)(=O)C2(C(=O)NO)CCN(Cc3ccc(Br)cc3)CC2)cc1 [Example 5, 1-(4-Bromo-benzyl)-4-(4-pent-2-ynyloxy-benzenesulfonyl)-piperdine-4-carboxylic acid hydroxyamide]
123 nM	59.4 nM		CC#CCOc1ccc(S(=O)(=O)C2(C(=O)NO)CCN(Cc3ccc(F)cc3)CC2)cc1 [Example 7, 4-(4-But-2-ynyloxy-benzenesulfonyl)-1-(4-fluoro-benzyl)-piperidine-4-carboxylic acid hydroxyamide]
195 nM	72 nM		CC#CCOc1ccc(S(=O)(=O)C2(C(=O)NO)CCN(Cc3ccc(C#N)cc3)CC2)cc1 [Example 8, 4-(4-But-2-ynyloxy-benzenesulfonyl)-1-(4-cyano-benzyl)-piperidine-4-carboxylic acid hydroxyamide]
166 nM	35.2 nM		CC#CCOc1ccc(S(=O)(=O)C2(C(=O)NO)CCN(Cc3ccc(C)cc3)CC2)cc1 [Example 9, 4-(4-But-2-ynyloxy-benzenesulfonyl)-1-(4-methyl-benzyl)-piperidine-4-carboxylic acid hydroxamide]
98 nM	3.1 nM		C#CCOc1ccc(S(=O)(=O)C2(C(=O)NO)CCN(Cc3ccc(Br)cc3)CC2)cc1 [Example 11, 1-(4-Bromo-benzyl)-4-(4-prop-2-ynyloxy-benzenesulfonyl)-piperdine-4-carboxylic acid hydroxyamide]
30.1 nM	121 nM		CC#CCOc1ccc(S(=O)(=O)C2(C(=O)NO)CCOCC2)cc1 [Example 20, 4-{[4-(2-butynyloxy)phenyl]sulfonyl}-N-hydroxytetrahydro-2H-pyran-4-carboxamide]
86.2 nM	64.4 nM		CC#CCOc1ccc(S(=O)(=O)C2(C(=O)NO)CCN(Cc3cccnc3)CC2)cc1 [Example 23, 4-{[4-(2-butynyloxy)phenyl]sulfonyl}-N-hydroxy-1-(3-pyridinylmethyl)-4-piperidine carboxamide]
136 nM	22.1 nM		CC#CCOc1ccc(S(=O)(=O)C2(C(=O)NO)CCN(Cc3ccc(OCCN4CCCCC4)cc3)CC2)cc1 [Example 26, 4-{[4-(2-Butynyloxy)phenyl]sulfonyl}-1-[4-(2-piperidin-1-yl-ethoxy)-benzyl]-piperidine-4-carboxylic acid hydroxyamide]
150 nM	5.3 nM		C#CCOc1ccc(S(=O)(=O)C2(C(=O)NO)CCN(Cc3ccc(OC)cc3)CC2)cc1 [Example 28, 1-(4-Methoxy-benzyl)-4-(4-prop-2-ynyloxy-benzenesulfonyl)-piperidine-4-carboxylic acid hydroxyamide]
127 nM	4.7 nM		C#CCOc1ccc(S(=O)(=O)C2(C(=O)NO)CCN(Cc3ccc(Cl)cc3)CC2)cc1 [Example 29, 1-(4-Chlorobenzyl)-4-(4-prop-2-ynyloxy-benzenesulfonyl)-piperidine-4-carboxylic acid hydroxyamide]
33 nM	102 nM		CC#CCOc1ccc(S(=O)(=O)CC2(C(=O)NO)CCN(C(=O)OC(C)(C)C)CC2)cc1 [Example 34, tert-Butyl-4-({[4-(but-2-ynyloxy)phenyl]sulfonyl}methyl)-4-[(hydroxyamino)-carbonyl]piperidine-1-carboxylate]
4.8 nM	380 nM		CC#CCOc1ccc(S(=O)(=O)CC2(C(=O)NO)CCN(C(C)=O)CC2)cc1 [Example 36, 1-Acetyl-4-[[[4-(2-butynyloxy)phenyl]sulfonyl]methyl]-N-hydroxy-4-piperidinecarboxamide]
19 nM	279 nM		CC#CCOc1ccc(S(=O)(=O)CC2(C(=O)NO)CCN(C(=O)NC(C)(C)C)CC2)cc1 [Example 38]
63 nM	36 nM		CC#CCOc1ccc(S(=O)(=O)CC2(C(=O)NO)CCN(C(=O)OCc3ccccc3)CC2)cc1 [Example 40, Benzyl 4-({[4-(2-butynyloxy)phenyl]sulfonyl}methyl)-4-[(hydroxyamino)-carbonyl]-1-piperidinecarboxylate]
37 nM	254 nM		CC#CCOc1ccc(S(=O)(=O)CC2(C(=O)NO)CCN(Cc3ccccc3)CC2)cc1 [Example 41]
